Assay results: patent US12358896B2, “LRRK2 inhibitors and methods of making and using thereof” (DENALI THERAPEUTICS INC., priority 2019, dated 2025)

Legend:
[1] = molecular target: LRRK2 G2019S enzyme (Homo sapiens, UniProt Q5S007, G2019S); experiment: LRRK2 G2019S TR-FRET biochemical assay (Biological Example 1); conditions: 134 μM ATP, 5 nM LRRK2, LRRKtide substrate
Method: • LRRK2 G2019S enzyme • Substrate (LRRKtide) • ATP • TR-FRET dilution buffer • pLRRKtide antibody • 384-well assay plate • DMSO Enzyme Reaction Conditions • 50 mM Tris pH 7.5, 10 mM MgCl2, 1 mM EGTA, 0.01% Brij-35, 2 mM DTT • 5 nM LRRK2 • 134 μM ATP • 60 minute reaction time • 23° C. reaction temperature • 10 μL total reaction volume Detection Reaction Conditions • 1×TR-FRET dilution buffer • 10 mM EDTA • 2 nM antibody • 23° C. reaction temperature • 10 μL total reaction volume
Compounds are prepared by initially diluting to 1 mM with DMSO. 35 μL of reference compound solution, 35 μL of test compound solution, and 35 μL HPE are successively added to the source plate (384-well assay plate, Labcyte). The plates are centrifuged at 2500 rpm for 1 minute and sealed in foil. POD is used to perform a 3.162 fold serial dilution and 100 nL of reference compound solution, test compound solution, HPE and ZPE are transferred to assay plates. The assay plate is centrifuged at 2500 rpm for 1 minute, and sealed with foil.
To perform the enzyme reaction, 5 μL of LRRKtide substrate and kinase mixture in assay buffer is added to all wells of the assay plate. The plate is centrifuged to concentrate the mixture at the bottom of the wells. The assay plate is incubated at 23° C. for 20 minutes. Following incubation, 5 μL of 2×ATP in assay buffer is added to each well, and plates are centrifuged to concentrate the mixture at the bottom of the wells. The plate is incubated at 23° C. for 60 minutes.
To perform the detection of the reaction, EDTA completely mixed in TR-FRET dilution buffer is added to antibody reagent. 10 μL of detection reagent is added to all wells of each well of the assay plate and the plate is centrifuged to concentrate the mixture at the bottom of the wells. The plate is then incubated at 23° C. for 60 minutes. Plates are read on Perkin Elmer Envision 2104 instrument in TR-FRET mode using a 340 nm excitation filter, 520 nm fluorescence emission filter, and 490 or 495 nm terbium emission filter.

[2] = Metabolic stability in human liver microsomes (Biological Example 2); type: in vitro ADME; conditions: hepatic clearance (CLhep) scaled from human liver microsomes, 1 μM, well-stirred model
Method: Metabolic stability of select compounds was evaluated in human liver microsomes (from Corning or XenoTech, LLC) using a 96-well plate assay format. Compounds were incubated at 37° C. at 1 μM final concentration in the microsomal matrix (0.5 mg/mL total protein) in the presence or absence of NADPH cofactor. An NADPH regenerating system, comprised of NADP, MgCl2, isocitric acid, and isocitrate dehydrogenase, was used in the assay. Enzymatic reactions were conducted for 0, 5, 10, 20, 30, or 60 min before termination by addition of acetonitrile containing tolbutamide and labetalol internal standards (100 ng/mL). After shaking for 10 min, plates were subjected to centrifugation (4000 rpm at 4° C.) for 20 min and supernatants mixed 1:3 with HPLC grade water. Samples were analyzed by LC-MS/MS using appropriate MRM transitions for each analyte and internal standard (IS). Analyte/IS peak area ratios were used to determine percent compound remaining at each time point. Intrinsic clearance (Clint; expressed as mL·min^−1·mg^−1) was calculated from the first order elimination constant (k, min^−1) of test article decay and the volume of the incubation. These values were scaled to intrinsic organ clearance (Clint) using human specific scaling factors (48.8 mg microsomal protein per g liver; 25.7 g liver per kg body weight). Organ Clint was subsequently converted to hepatic clearance, HLM, (CLhep, mL·min-1·kg-1) using the well-stirred model of hepatic elimination, where Qh is human hepatic blood flow (20.7 mL·min-1·kg-1).
CLhep is the projected human clearance in the liver based on the above in vitro assay. A lower value is indicative of less compound being removed by the liver.

[3] = molecular target: T1, FLAG-tagged human LRRK2 with G2019S mutation (Homo sapiens, UniProt Q5S007, G2019S); experiment: Inhibition of pSer935 in HEK293 cells with expressed G2019S LRRK2 (Biological Example 4); type: cell-based; conditions: transfected 293T cells, 90 minutes compound treatment, MSD readout; read-out: HEK293T LRRK2 G2019S pS935
T1 construct: expressed in transfected cells; host or cells: HEK293 / 293T cells, transient transfection with pCMV-FLAG-G2019S
Method: In this assay, inhibition of phosphorylation of LRRK2 at residue serine 935 (pS935) by test compound was determined in HEK293 cells.
HEK293 cells were first transiently transfected with a plasmid harboring FLAG-tagged human LRRK2 cDNA with G2019S mutation (p.G2019S) under the control of CMV promoter for robust overexpression. The levels of phosphorylated Ser935 in G2019S expressing cells with or without compound treatment were measured by MSD using an anti-FLAG capture antibody and a phosho-specific anti-LRRK2 pS935 monoclonal detection antibody. The IC50 was determined by fitting a 10-point dose response data in duplicate with four parameter non-linear regression curve.
(Day 1) 293T cell seeding: 293T cells were seeded (1.4×10^6/well) into each well of a 6-well plate. After two days in culture, the cell number can grow into 5×10^6/well, so N+1 wells were seeded (enough for N 96 well assay plates).
(Day 2) 293T cell transfection: 5 μL of pCMV-FLAG-G2019S or pCMV-FLAG-WT LRRK2 (0.5 μg/μL) was added into 145 μL of DMEM medium, and mixed thoroughly by pipette up and down several times. 15 μL of SuperFect Transfection Reagent was added into samples, mixed thoroughly by pipetting up and down several times, and allowed to equilibrate at room temperature for 5-10 minutes. 0.5 mL of pre-warmed cell culture medium was added into samples, and mixed thoroughly by pipetting up and down several times. 650 μL of the mixture was added dropwise into each well of the 6 well plate, the plate was swirled to mix thoroughly, and incubated in a 37° C. incubator with a humidified atmosphere of 5% CO2 for 20-24 hours.
(Day 3) 293T cells seed into 96 well plates: Cells were harvested and resuspended in cell culture medium at 0.96×10^6 cells/mL density. 50 μL/well cells were plated onto 96-well cell culture plate (48,000 cells/well), and the plates were incubated in a 37° C. incubator with a humidified atmosphere of 5% CO2 for 20-24 hours.
(Day 4) Inhibitor Treatment and Cell Lysis: The compound destination plates were thawed at room temperature and centrifuged at 2000 rpm. 55 μL cell culture medium was added into compound destination plate, and the plate was warmed at 37° C.
50 μL of cell culture medium containing compounds was transferred into cell culture plate. Plates were incubated in a 37° C. incubator with a humidified atmosphere of 5% CO2 for 90 minutes, after which all of compound-containing medium was completely aspirated manually with 300 μL pipette. 100 μL/well of Lysis Buffer was added and the plates sealed, shaken at 4° C. for 30 minutes, and stored at −20° C. until usage.
(Day 5) MSD procedure: 2 μg/25 μL/well of FLAG antibody diluted in PBS was added into the MSD plate, incubated for two hours at room temperature or overnight at 4° C. (in Day 4). 50 μL (3.9 μg/μL) of FLAG antibody plus 2.5 mL PBS, per 96 well plate, or 50 μL (3.9 μg/μL) anti-FLAG antibody plus 5 mL PBS per 384 well plate. The plates were centrifuged at 1000 rpm for 10 seconds and shaken with a plate shaker for 10 seconds.
Anti-FLAG antibody was discarded, and the wells were washed using multidrop, low speed, two times with 300 μL/well of wash buffer for a 96 well plate or three times with 70 μL/well of wash buffer for a 384 well plate. 50 μL/well of block buffer for a 96 well plate, or 25 μL/well of block buffer for a 384 well plate, was added and the plates were incubated for two hours at room temperature. The Block buffer was then discarded and the wells washed two times using multidrop, low speed, with 300 μL/well of wash buffer for a 96 well plate, or three times with 70 μL/well of wash buffer for a 384 well plate.
25 μL of cell lysate was transferred into a 96 well MSD plate, or 12.5 μL of cell lysate into 384 well MSD plate, and the plates were incubated for one hour at room temperature.
Note: The cell lysate should be thawed one hour prior to this step, the plate centrifuged at 1000 rpm for one minute, shaken for 30 seconds, and then unsealed for lysate transfer. […]

LRRK2 G2019S enzyme, sequence (Q5S007 whole entry G2019S): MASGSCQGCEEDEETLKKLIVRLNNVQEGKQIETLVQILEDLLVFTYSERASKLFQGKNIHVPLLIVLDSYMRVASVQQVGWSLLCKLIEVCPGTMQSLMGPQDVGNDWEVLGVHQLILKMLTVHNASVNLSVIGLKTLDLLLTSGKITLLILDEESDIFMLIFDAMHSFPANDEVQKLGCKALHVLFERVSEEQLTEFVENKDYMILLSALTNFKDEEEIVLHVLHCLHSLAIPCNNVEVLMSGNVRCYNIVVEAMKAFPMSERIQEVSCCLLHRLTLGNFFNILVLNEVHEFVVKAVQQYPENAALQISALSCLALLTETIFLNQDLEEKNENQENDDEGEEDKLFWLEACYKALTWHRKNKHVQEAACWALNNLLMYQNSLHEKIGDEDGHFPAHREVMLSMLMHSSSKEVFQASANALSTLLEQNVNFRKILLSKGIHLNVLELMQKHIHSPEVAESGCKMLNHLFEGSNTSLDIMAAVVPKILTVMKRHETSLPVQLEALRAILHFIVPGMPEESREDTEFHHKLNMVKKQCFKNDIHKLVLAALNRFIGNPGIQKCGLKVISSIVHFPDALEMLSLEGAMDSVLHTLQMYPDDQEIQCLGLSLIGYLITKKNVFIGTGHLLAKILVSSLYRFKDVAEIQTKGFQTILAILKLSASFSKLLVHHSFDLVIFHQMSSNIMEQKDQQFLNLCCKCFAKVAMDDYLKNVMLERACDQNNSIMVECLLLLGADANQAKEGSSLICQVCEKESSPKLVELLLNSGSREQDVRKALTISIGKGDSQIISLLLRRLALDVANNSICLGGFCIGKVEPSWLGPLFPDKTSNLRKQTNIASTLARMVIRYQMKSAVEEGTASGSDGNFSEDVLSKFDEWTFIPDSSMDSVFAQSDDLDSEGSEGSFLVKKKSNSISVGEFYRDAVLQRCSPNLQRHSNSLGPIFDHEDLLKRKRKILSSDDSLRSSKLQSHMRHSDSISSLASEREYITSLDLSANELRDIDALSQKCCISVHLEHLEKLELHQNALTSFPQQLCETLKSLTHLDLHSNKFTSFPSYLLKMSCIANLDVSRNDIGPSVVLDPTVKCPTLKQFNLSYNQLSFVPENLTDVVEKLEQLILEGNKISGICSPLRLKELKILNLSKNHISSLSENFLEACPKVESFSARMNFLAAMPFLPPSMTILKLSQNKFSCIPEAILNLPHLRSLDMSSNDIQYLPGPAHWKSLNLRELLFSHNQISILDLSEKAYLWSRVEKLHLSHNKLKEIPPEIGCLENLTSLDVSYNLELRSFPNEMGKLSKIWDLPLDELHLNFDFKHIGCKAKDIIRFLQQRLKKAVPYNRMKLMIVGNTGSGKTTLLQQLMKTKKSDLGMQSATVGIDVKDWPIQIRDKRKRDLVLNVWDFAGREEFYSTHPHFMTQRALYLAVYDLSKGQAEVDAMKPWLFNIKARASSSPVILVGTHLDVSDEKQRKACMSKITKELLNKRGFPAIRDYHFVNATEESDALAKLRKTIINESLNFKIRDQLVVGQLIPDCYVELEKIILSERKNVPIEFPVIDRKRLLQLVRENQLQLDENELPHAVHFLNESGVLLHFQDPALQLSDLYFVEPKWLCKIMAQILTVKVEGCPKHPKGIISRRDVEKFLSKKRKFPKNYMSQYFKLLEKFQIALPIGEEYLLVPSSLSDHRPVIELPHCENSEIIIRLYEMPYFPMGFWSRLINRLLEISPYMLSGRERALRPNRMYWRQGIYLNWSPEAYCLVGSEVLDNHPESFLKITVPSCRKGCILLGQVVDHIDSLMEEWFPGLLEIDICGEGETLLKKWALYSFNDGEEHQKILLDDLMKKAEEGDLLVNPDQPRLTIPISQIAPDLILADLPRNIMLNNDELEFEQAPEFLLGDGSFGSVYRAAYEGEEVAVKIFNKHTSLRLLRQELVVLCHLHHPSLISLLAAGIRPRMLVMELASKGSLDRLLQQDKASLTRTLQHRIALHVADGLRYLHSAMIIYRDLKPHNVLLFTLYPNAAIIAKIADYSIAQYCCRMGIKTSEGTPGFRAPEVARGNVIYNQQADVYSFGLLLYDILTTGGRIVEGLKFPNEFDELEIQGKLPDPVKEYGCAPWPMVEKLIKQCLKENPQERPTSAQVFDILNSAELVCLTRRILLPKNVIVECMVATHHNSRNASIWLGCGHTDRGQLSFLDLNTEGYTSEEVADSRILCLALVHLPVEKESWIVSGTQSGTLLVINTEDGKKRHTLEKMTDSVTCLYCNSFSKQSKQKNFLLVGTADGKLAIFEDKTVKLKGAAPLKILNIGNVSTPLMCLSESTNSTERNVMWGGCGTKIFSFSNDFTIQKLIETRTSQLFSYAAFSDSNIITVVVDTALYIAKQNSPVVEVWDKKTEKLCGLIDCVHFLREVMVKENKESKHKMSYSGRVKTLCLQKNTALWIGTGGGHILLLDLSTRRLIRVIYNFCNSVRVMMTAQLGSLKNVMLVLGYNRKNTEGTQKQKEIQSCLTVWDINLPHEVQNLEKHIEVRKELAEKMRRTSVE
T1 sequence (Q5S007 whole entry G2019S): as above

With Cc1nn(C2C[C@@]2(C)C(N)=O)cc1Nc1ncc(C(F)(F)F)c(NC2(C)CC2)n1 (single isomer, unassigned) [Example 1, (1,2-cis)-1-methyl-2-(3-methyl-4-((4-((1-methylcyclopropyl)amino)-5-(trifluoromethyl)pyrimidin-2-yl)amino)-1H-pyrazol-1-yl)cyclopropanecarboxamide] the IC50 [1] was 1.03 nM, the “HLM Avg” value [2] was 0.384 L/h/kg and the IC50 [3] was 1.79 nM.

For CNc1nc(Nc2cn([C@@H]3C[C@@H]3C(N)=O)nc2C2CC2)ncc1C(F)(F)F (single isomer, unassigned) [Example 2, (1,2-cis)-2-(3-cyclopropyl-4-((4-(methylamino)-5-(trifluoromethyl)pyrimidin-2-yl)amino)-1H-pyrazol-1-yl)cyclopropanecarboxamide], the IC50 [1] was 2.8 nM and the IC50 [3] was 3.06 nM.

CCNc1nc(Nc2cn(C3C[C@@]3(C)C(N)=O)nc2C)ncc1Br (single isomer, unassigned) [Example 3, (1,2-cis)-2-(4-((5-bromo-4-(ethylamino)pyrimidin-2-yl)amino)-3-methyl-1H-pyrazol-1-yl)-1-methylcyclopropanecarboxamide] showed an IC50 [1] of 2.28 nM and an IC50 [3] of 10.5 nM.

With Cc1nn(C2C[C@]2(C)C(N)=O)cc1Nc1ncc(C(F)(F)F)c(NC2(C)CC2)n1 (single isomer, unassigned) [Example 4, (1,2-cis)-1-methyl-2-(3-methyl-4-((4-((1-methylcyclopropyl)amino)-5-(trifluoromethyl)pyrimidin-2-yl)amino)-1H-pyrazol-1-yl)cyclopropanecarboxamide] the IC50 [1] was 1.49 nM, the “HLM Avg” value [2] was 0.534 L/h/kg and the IC50 [3] was 3 nM.

In the case of CCNc1nc(Nc2cn([C@@H]3C[C@]3(C)C(N)=O)nc2C2CC2)ncc1C(F)(F)F (single isomer, unassigned) [Example 5, (1,2-cis)-2-(3-cyclopropyl-4-((4-(ethylamino)-5-(trifluoromethyl)pyrimidin-2-yl)amino)-1H-pyrazol-1-yl)-1-methylcyclopropanecarboxamide], the IC50 [1] is reported as 0.92 nM, the “HLM Avg” value [2] is reported as 0.66 L/h/kg and the IC50 [3] is reported as 5.12 nM.

Compound Cc1nn(C2C[C@]2(C)C(N)=O)cc1Nc1ncc(C(F)(F)F)c(NC2CC2)n1 (single isomer, unassigned) [Example 6, (1,2-cis)-2-(4-((4-(cyclopropylamino)-5-(trifluoromethyl)pyrimidin-2-yl)amino)-3-methyl-1H-pyrazol-1-yl)-1-methylcyclopropanecarboxamide] has an IC50 [1] of 1.23 nM and an IC50 [3] of 5.79 nM.

With CCNc1nc(Nc2cn([C@@H]3C[C@@H]3C(N)=O)nc2C2CC2)ncc1C(F)(F)F (single isomer, unassigned) [Example 8, (1,2-cis)-2-(3-cyclopropyl-4-((4-(ethylamino)-5-(trifluoromethyl)pyrimidin-2-yl)amino)-1H-pyrazol-1-yl)cyclopropanecarboxamide] the IC50 [1] was 1.11 nM and the IC50 [3] was 4.94 nM.
